Experimental findings from US9012397B2 (priority 2011, dated 2015) are described below.

In this test the test system is unidentified sting. Also noted: species or system human. To be noted: in vivo.

Regarding pGLU-ASN-TRP-LYS-C8 [ZEP3], the clinical outcome was “relief from the itching sensation within a number of minutes” and the “time until redness disappeared” value turned out to be 2 days.
